Measured values published in patent publication US7358249B2, “Heterocyclic compounds having inhibitory activity against HIV integrase” (Shionogi & Co., Ltd., priority 2002, dated 2008).

Experiments:
HIV integrase = HIV integrase (Human immunodeficiency virus type 1 group M subtype B, UniProt P04585); assay: integrase inhibition assay (microtiter plate, substrate DNA / target DNA); type: biochemical; conditions: integrase 30 pmol, incubated at 30° C. for 1 hour, OD at 405 nm, concentration at percent inhibition 50%; for IC50: read-out: MIA, IC50 (ug/ml) (converted)
Description: The inhibitory activities against integrase of the presnt compounds were determined by the assay described below.
(1) Preparation of DNA Solutions
Substrate DNA and target DNA synthesized by Amersham Pharmacia Biotech, which sequences were indicated below, were dissolved in KTE buffer (composition: 100 mM KCl, 1 mM EDTA, 10 mM Tris-HCl (pH 7.6)) at a concentration of 2 pmol/μl and 5 pmol/μl, respectively. The DNA solutions were heated and then slowly cooled so that they were annealed with each complement.
(Sequence of Substrate DNA)
(2) Calculations of the percent inhibitions (IC50 values of test compounds)
Streptavidin, obtained from Vector Laboratories, was dissolved in 0.1 M carbonate buffer (composition: 90 mM Na2CO3, 10 mM NaHCO3) at a concentration of 40 μg/ml. After coating each well of microtiter plates (obtained from NUNC) with 50 μl of the above solution at 4° C. over night, each well was washed twice with PBS (composition: […], 0.27 mM KCl, 0.43 mM Na2HPO4, 0.14 mM KH2PO4) and blocked with 300 μl of 1% skim milk in PBS for 30 min. Additionally, each well was washed twice with PBS and added with 50 μl of the substrate DNA solution (2 pmol/μl). The microtiter plates were kept at room temperature for 30 min. Then, each well was washed twice with PBS and once with H2O.
Subsequently, to the each well prepared above were added 45 μl of the reaction buffer prepared from 12 μl of the buffer (composition: 150 mM MOPS (pH 7.2), 75 mM MnCl2, 50 mM 2-mercaptoethanol, 25% glycerol, 500 μg/ml bovine serum albumin-fraction V), 1 μl of target DNA (5 pmol/μ), and 32 μl of the distilled water. Additionally, 6 μl of either a test compound in DMSO or DMSO for positive control (PC) was mixed with the above reaction buffer, then 9 μl of an integrase solution (30 pmol) was added thereto and the mixture was mixed well. To the well of negative control (NC) was added 9 μl of the integrase dilution buffer (composition: 20 mM MOPS (pH7.2), 400 mM potassium glutamate, 1 mM EDTA, 0.1% NP-40, 20% glycerol, 1 mM DTT, 4 M urea).
The microtiter plates were incubated at 30° C. for 1 hour. The reaction solution was removed and each well was washed twice with PBS. Subsequently, each well of the microtiter plates was filled with 100 μl of anti-digoxigenin antibody labeled with alkaline phosphatase (Sheep Fab fragment: obtained from Boehringer) and incubated at 30° C. for 1 hour. Then, each well was washed twice with 0.05% Tween20 in PBS and once with PBS. Next, 150 μl of the Alkaline phosphatase reaction buffer (composition: 10 mM p-Nitrophenylphosphate (obtained from Vector Laboratories), 5 mM MgCl2, 100 mM NaCl, 100 mM Tris-HCl (pH 9.5)) was added to each well. The microtiter plates were incubated at 30° C. for 2 hours and the reaction was terminated by the addition of 50 μl of 1 N NaOH solution. The optical density (OD) at 405 nm of each well was measured and the percent inhibition was determined by the following expression. The percent inhibition (%)=100[1−{(C abs.−NC abs.)/(PC abs.−NC abs.)}]
C abs.; the OD of the well of the test compound
NC abs.: the OD of the negative control (NC)
PC abs.: the OD of the positive control (PC)
When the percent inhibition (%) is X % at a concentration of x μg/ml and the percent inhibition (%) is Y % at a concentration of y μg/ml, one of which is more than 50% and the other is less than 50%, IC50 can be determined by the following expression. IC50 (μg/ml)=x−{(X−50)(x−y)/(X−Y)}
Compound No. in the Table 1 is the same as compound No. of the above Examples.

Compound: CC(=O)N1CCC(OC(=O)c2ncc3cc(Cc4ccc(F)cc4)cnc3c2O)CC1 [Compound A-82, 3-(4-Fluorobenzyl)-8-hydroxy[1,6]naphthylidine-7-carboxylic acid 1-acetylpiperidine-4-yl ester]
- IC50 (HIV integrase): 260 nM
- melting point: 163 to 165 °C

Compound: COCCC(=O)Nc1cc(C(=O)OC)c(O)c2ncc(Cc3ccc(F)cc3)cc12 [Compound I-182, 3-(4-Fluorobenzyl)-8-hydroxy-5-(3-methoxy-propionylamino)-quinoline-7-carboxylic acid methyl ester]
- IC50 (HIV integrase): 461 nM
- melting point: 190 to 192 °C

Compound: CCC(=O)c1ncc2cc(Cc3ccc(F)cc3)cnc2c1O [Compound A-19, 1-[3-(4-fluorobenzyl)-8-hydroxy-1,6-naphthylidin-7-yl]propan-1-one]
- MIA, IC50 (HIV integrase): 0.12 µg/mL

Compound: COC(=O)c1cc(NC=O)c2cc(Cc3ccc(F)cc3)cnc2c1O [Compound I-13, 3-(4-Fluorobenzyl)-5-formylamino-8-hydroxyquinoline-7-carboxylic acid methyl ester]
- IC50 (HIV integrase): 1040 nM

Compound: COC(=O)c1cc(C(=O)N2CCN(C)CC2)c2cc(Cc3ccc(F)cc3)cnc2c1O [Compound I-48, 3-(4-Fluorobenzyl)-8-hydroxy-5-(4-methyl-piperadine-1-carbonyl)quinoline-7-carboxylic acid methyl ester]
- IC50 (HIV integrase): 800 nM
- melting point: 184 to 185 °C

Compound: COCCNC(=O)c1cc(C(=O)OC)c(O)c2ncc(Cc3ccc(F)cc3)cc12 [Compound I-6]
- IC50 (HIV integrase): 412 nM
- melting point: 152 to 154 °C

Compound: COC(=O)c1nc(NC(C)=O)c2cc(Cc3ccc(F)cc3)cnc2c1O [Compound A-10, Methyl 5-acetylamino-3-(4-fluorobenzyl)-8-hydroxy-1,6-naphthylidine-7-carboxylate]
- IC50 (HIV integrase): 379 nM
- melting point: 263 to 267 °C

Compound: COC(=O)c1cc(C(=O)NCCCO)c2cc(Cc3ccc(F)cc3)cnc2c1O [Compound I-58, 3-(4-Fluorobenzyl)-8-hydroxy-5-(3-hydroxypropylcarbamoyl)quinoline-7-carboxylic acid methyl ester]
- IC50 (HIV integrase): 388 nM

Compound: COC(=O)c1nc(N2CCCCS2(=O)=O)c2cc(Cc3ccc(F)cc3)cnc2c1O [Compound A-22, Methyl 3-(4-fluorobenzyl)-5-(1,1-dioxido-1,2-thiazinan-2-yl)-8-hydroxy-1,6-naphthylidine-7-carboxylate]
- IC50 (HIV integrase): 427 nM

Compound: COC(=O)c1ncc2cc(Cc3ccc(F)cc3)cnc2c1O [Compound A-2, Methyl 3-(4-fluorobenzyl)-8-hydroxy-1,6-naphthylidine-7-carboxylate]
- IC50 (HIV integrase): 416 nM
- melting point: 218 to 219 °C

Compound: COC(=O)c1cc(NC(C)C)c2cc(Cc3ccc(F)cc3)cnc2c1O [Compound I-14, 3-(4-Fluorobenzyl)-8-hydroxy-5-isopropylaminoquinoline-7-carboxylic acid methylester]
- IC50 (HIV integrase): 1190 nM
- melting point: 121 to 122 °C

Compound: COC(=O)c1nc(C(=O)OC)c2cc(Cc3ccc(F)cc3)cnc2c1O [Compound A-15, Dimethyl 3-(4-fluorobenzyl)-8-hydroxy-1,6-naphthylidine-5,7-dicarboxylate]
- IC50 (HIV integrase): 783 nM
- melting point: 191 to 194 °C

Compound: COCC(C)OC(=O)c1ncc2cc(Cc3ccc(F)cc3)cnc2c1O (centres unmarked) [Compound A-79, 3-(4-Fluorobenzyl)-8-hydroxy[1,6]naphthylidine-7-carboxylic acid [2-(1-methoxy)propyl]ester]
- IC50 (HIV integrase): 351 nM
- melting point: 130 to 131 °C

Compound: CCOC(=O)Nc1nc(C(=O)OC)c(O)c2ncc(Cc3ccc(F)cc3)cc12 [Compound A-42, 5-[(Ethoxycarbonyl)amino]-3-(4-fluorobenzyl)-8-hydroxy[1,6]naphthylidine-7-carboxylic acid methyl ester]
- IC50 (HIV integrase): 576 nM
- melting point: 247 to 249 °C

Compound: COC(=O)c1cc(N(C)C)c2cc(Cc3ccc(F)cc3)cnc2c1O [Compound I-16, 5-Dimethylamino-3-(4-fluorobenzyl)-8-hydroxyquinoline-7-carboxylic acid methylester]
- IC50 (HIV integrase): 451 nM
- melting point: 62 to 63 °C

Compound: COC(=O)c1cc(CO)c2cc(Cc3ccc(F)cc3)cnc2c1O [Compound I-117, 3-(4-Fluorobenzyl)-8-hydroxy-5-hydroxymethylquinoline-7-carboxylic acid methyl ester]
- IC50 (HIV integrase): 208 nM
- melting point: 142 to 143 °C

Compound: COC(=O)c1nc(NS(=O)(=O)N(C)C)c2cc(Cc3ccc(F)cc3)cnc2c1O [Compound A-26, Methyl 5-[(dimethylamino)sulfonyl]-amino-3-(4-fluorobenzyl)-8-hydroxy-1,6-naphthylidine-7-carboxylate]
- IC50 (HIV integrase): 345 nM
- melting point: 159 to 160 °C

Compound: CNC(=O)c1nc(C#CCO)c2cc(Cc3ccc(F)cc3)cnc2c1O [Compound A-98, 3-(4-Fluorobenzyl)-8-hydroxy-5-(3-hydroxy-1-propyn-1-yl)-[1,6]naphthylidine-7-carboxylic acid methyl amide]
- IC50 (HIV integrase): 520 nM
- melting point: 185 °C

Compound: COC(=O)c1cc(C(=O)N2CCOCC2)c2cc(Cc3ccc(F)cc3)cnc2c1O [Compound I-26, (4-Fluorobenzyl)-8-hydroxy-5-(morpholine-4-carbonyl)quinoline-7-carboxylic acid methyl ester]
- MIA, IC50 (HIV integrase): 0.37 µg/mL

Compound: NC(=O)c1cc(C(=O)O)c(O)c2ncc(Cc3ccc(F)cc3)cc12 [Compound I-7, 5-Carbamoyl-3-(4-fluorobenzyl)-8-hydroxyquinoline-7-carboxylic acid]
- IC50 (HIV integrase): 705 nM
- melting point: 265 to 266 °C

Compound: COC(=O)c1nc(C#CCO)c2cc(Cc3ccc(F)cc3)cnc2c1O [Compound A-18, Methyl 3-(4-fluorobenzyl)-8-hydroxy-5-(3-hydroxy-1-propynyl)-1,6-naphthylidine-7-carboxylate]
- IC50 (HIV integrase): 655 nM
- melting point: 205 to 208 °C

Compound: COC(=O)c1cc(C(=O)NCC(=O)N(C)C)c2cc(Cc3ccc(F)cc3)cnc2c1O [Compound I-64, 5-(Dimethylcarbamoylmethylcarbamoyl)-3-(4-fluorobenzyl)-8-hydroxyquinoline-7-carboxylic acid methyl ester]
- IC50 (HIV integrase): 979 nM
- melting point: 198 to 199 °C

Compound: COC(=O)c1cc(C(=O)NC(C)C(=O)OC)c2cc(Cc3ccc(F)cc3)cnc2c1O (centres unmarked) [Compound I-54, (4-Fluorobenzyl)-8-hydroxy-5-(1-methoxycarbonylethylcarbamoyl)quinoline-7-carboxylic acid methyl ester]
- MIA, IC50 (HIV integrase): 0.38 µg/mL

Compound: COC(=O)c1nc(NC(=O)C(=O)N(C)C)c2cc(Cc3ccc(F)cc3)cnc2c1O [Compound A-115, 5-[[(Dimethylamino)oxalyl]amino]-3-(4-fluorobenzyl)-8-hydroxy[1,6]naphthylidine-7-carboxylic acid methyl ester]
- IC50 (HIV integrase): 422 nM

Compound: COC(=O)c1nc(N2CCOC2=O)c2cc(Cc3ccc(F)cc3)cnc2c1O
- melting point: 256 °C (dec.)

Compound: COC(=O)C=Cc1cc(C(=O)OC)c(O)c2ncc(Cc3ccc(F)cc3)cc12
- melting point: 139 to 141 °C

Compound: COC(=O)c1cc(N2CCOCC2)c2cc(Cc3ccc(F)cc3)cnc2c1O
- melting point: 119 to 120 °C

Compound: COCC(=O)Nc1cc(C(=O)OC)c(O)c2ncc(Cc3ccc(F)cc3)cc12
- melting point: 154 to 155 °C

Compound: COC(=O)c1cc(NC(=O)Cc2ccc(F)cc2)c2cc(Cc3ccc(F)cc3)cnc2c1O
- melting point: 239 to 240 °C

Compound: COC(=O)c1cc(NC(=O)c2ccccc2)c2cc(Cc3ccc(F)cc3)cnc2c1O
- melting point: 247 to 249 °C
